Test results as given in paper PMC6950057, “Toxicity, Pharmacokinetics, and Gut Microbiome of Oral Administration of Sesterterpene MHO7 Derived from a Marine Fungus” (Marine Drugs, 2019).

What was measured:
KM mice = assay: Acute toxicity / maximum tolerated dose, oral; assay type: in vivo; design: Body weight / Heart weight / Liver weight / spleen weight / lung weight / kidney weight / Reproductive organs weight / brain weight: unit not given here; settings: for Body weight / Heart weight / Liver weight / Reproductive organs weight / brain weight / kidney weight / lung weight / spleen weight: 2400 mg/kg
Procedure: (§1) Male and female KM mice of 8–10 weeks of age (20–22 g) were used in acute toxicity experiment and only female KM mice were subjected in other animal experiments. All mice were purchased from the Vital River Laboratory Animal Technology Co. Ltd. (Beijing, China). The mice were bred in a standard environment (23 ± 1 °C; humidity of 60 ± 5%) with a 12-h light/dark cycle and food and water were provided ad libitum. All animal protocols were approved by the Animal Care and Use Committee of Wuhan University Center for Animal Experiment ABSL-Ⅲ Laboratory and complied with the Guide for the Care and Use of Laboratory Animals (NIH publication, 8th edition, 2011). In total, 130 mice were used for in vivo studies under the ethical approved protocols.
(§2) Male and female KM mice of 8–10 weeks of age (20–22 g) were used in acute toxicity experiment. After animals were acclimatized for 1 week, 20 female and 20 male mice were randomly and evenly divided into four groups. The mice of acute toxicity experiment were fasted overnight and administered by the oral dose of MHO7 (2400 mg·kg^−1, bw) diluted in corn oil the next morning. Then, mice were placed with free access to chow and water. […] The number surviving and their behaviors was also recorded every day.

[1] = Acute toxicity / maximum tolerated dose, oral; assay type: in vivo, mice; design: Body weight / Heart weight / Liver weight / spleen weight / lung weight / kidney weight / Reproductive organs weight / brain weight: unit not given here; settings: both sexes, mouse, in vivo, 2400 mg·kg^−1; oral administration, male and female KM mice; read-out: maximum tolerable dose (MTD)
Procedure: as §1, §2

[2] = Plasma pharmacokinetics after single oral dose; assay type: in vivo; settings: mice plasma, single oral 500 mg·kg^−1, female mice
Procedure: Ninety female KM mice of 8–10 weeks of age (20–22 g) were divided randomly into 15 groups, and, after fasting for 12 h, the mice in other experiments were oral administrated at the dose of 500 mg·kg^−1 bw. About 500 μL blood samples were collected at 0.5, 1, 2, 3, 4, 5, 6, 8, 10, 12, 16, 20, 24, 30 and 36 h into heparinized tubes after the intragastric administration of MHO7. All blood samples were immediately centrifuged at 8000 g for 5 min and the resulting plasma was transferred and then processed as described in sample preparation for the analysis by LC-MS/MS. MHO7 levels in plasma were quantified by HPLC–MS/MS. The calibration curve was constructed by plotting the peak area ratio of MHO7 to the internal standard and the linearity was determined by weighted (1/x) linear regression analysis. The regression equation of the calibration curve was then used to calculate the concentration of MHO7 in the plasma. QC samples and standard curve series solutions were prepared in the same way of blank plasma. The concentrations of HQC, MQC, and LQC were 5, 0.5, and 0.05 μM·L^−1, respectively, and the concentrations of standard curve series solutions were 5, 2.5, 1, 0.5, 0.25, 0.1, 0.05, and 0.01 μM·L^−1.
Data for each group are presented as mean ± SD. Statistical significance of different formulations were measured by one-way analysis of variance (ANOVA) followed by the Tukey Kramer multiple comparison test, using SPSS software version 14.0 (SPSS, Chicago, IL, USA), and the statistical significance was expressed by a p-value of less than 0.05. The main pharmacokinetic parameters of MHO7 was fitted by the average mean of a group in each time point with the Phoenix WinNonLin software version 6.3 (Pharsight, Cary, NC, USA). The gut microbiome analysis was performed using the free online platform of Majorbio Cloud Platform (www.majorbio.com).

CC(C)=C/C=C/[C@H](C)[C@H]1CC[C@]2(C)C[C@@H]3C(C)=CC(=O)[C@H]3/C(C=O)=C\C[C@@H]12 [MHO7, 6-epi-ophiobolin G]
Body weight (KM mice; female mice): 33.30±2.1
Heart weight (KM mice; female mice): 0.15±0.01
Liver weight (KM mice; female mice): 1.49±0.09
Reproductive organs weight (KM mice; female mice): 0.21±0.05
brain weight (KM mice; female mice): 0.40±0.07
kidney weight (KM mice; female mice): 0.46±0.02
lung weight (KM mice; female mice): 0.22±0.02
spleen weight (KM mice; female mice): 0.13±0.05
Body weight (KM mice; male mice): 38.75±2.96
Heart weight (KM mice; male mice): 0.18±0.02
Liver weight (KM mice; male mice): 2.39±0.38
Reproductive organs weight (KM mice; male mice): 0.19±0.02
brain weight (KM mice; male mice): 0.42±0.06
kidney weight (KM mice; male mice): 0.58±0.06
lung weight (KM mice; male mice): 0.22±0.03
spleen weight (KM mice; male mice): 0.15±0.03
weight ranges (Table S5), treatment vs control group (KM mice; oral 2400 mg·kg^−1): no significant difference
observed toxicity (KM mice; oral 2400 mg·kg^−1, 14 days observation): No obvious toxicity was observed
body weight, MHO7 group vs control group (KM mice; oral 2400 mg·kg^−1, after seven days): no significant difference
diarrhea (KM mice; oral 2400 mg·kg^−1, female and male mice, returned to normal within two days): a small number of animals with diarrhea was found during the first day
tolerability (KM mice; oral administration 2400 mg·kg^−1): well-tolerated
MTD at 2 weeks [1]: 2400 mg/kg
AUC ([2]; KM, mouse): 10500 ng·h/mL
Cmax ([2]; KM, mouse): 1380 ng/mL
MRT ([2]; KM, mouse): 8.76 h
half-life ([2]; KM, mouse): 418 min
k el ([2]; KM, mouse, read-out: Lambda_z (converted)): 2.78e-05 s⁻¹
Tmax ([2]; female, KM, mouse, plasma, po, 500 mg/kg): ~8 h
V/F [2]: 479.02 L/kg
